# Assay results published in article PMC12109561, “LPS2336, a New TREK-1 Channel Activator Identified by High Throughput Screening” (Biomolecules, 2025).
# Like-named read-outs stand apart in the source and are kept apart here.
# What was measured:
# hTREK-1 [1] = biological target: T1, hTREK-1 (Homo sapiens, UniProt O95069)
# T1 sequence (O95069 1-422 isoform O95069-3): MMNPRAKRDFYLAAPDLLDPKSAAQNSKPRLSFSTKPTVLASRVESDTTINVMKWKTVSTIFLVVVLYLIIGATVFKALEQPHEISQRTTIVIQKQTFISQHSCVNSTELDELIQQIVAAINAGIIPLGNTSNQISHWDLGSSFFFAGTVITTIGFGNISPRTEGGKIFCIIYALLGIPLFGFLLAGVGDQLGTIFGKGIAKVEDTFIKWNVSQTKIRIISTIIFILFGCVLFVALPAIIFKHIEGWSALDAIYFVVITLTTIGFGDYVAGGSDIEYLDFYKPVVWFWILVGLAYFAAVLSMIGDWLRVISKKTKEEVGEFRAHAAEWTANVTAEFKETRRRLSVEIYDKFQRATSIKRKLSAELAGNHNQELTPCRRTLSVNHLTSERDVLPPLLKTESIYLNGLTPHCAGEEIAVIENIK
# hTREK-1 [2] = biological target: T1, hTREK-1; test: Whole cell patch clamp on HEK-hTREK-1 cells; assay type: cell-based; set-up: transfected with the human Kcnk2 (NM_001017424) or Kcnk10 (NM_021161) ORF cloned in a pEZ-M02 expression vector
# CD1 mice [3] = test: Hargreaves test in carrageenan-induced paw inflammation; assay type: in vivo, mouse
# [4] = tested on: WT and TREK-1 KO littermates of C57Bl6/J background; test: Horizontal bar test in WT and TREK-1 KO littermates; assay type: in vivo, mouse; settings: i.p. 50 mg/kg, 15 min
# Source text: (§1) TREK-1^−/− mice were generated by crossing mice carrying an allele of the Kcnk2 gene in which exon 3 was floxed (RRID:MGI:3050295) with ZP3-Cre mice (RRID:MGI:3835429), both in C57Bl6/J background. F1 females, producing TREK-1^+/− oocytes, were crossed with WT males. TREK-1^+/− F2 offspring not carrying the ZP3-Cre transgene were finally crossed together to generate TREK-1^−/− and TREK-1^+/+ littermates, which were weaned in separate cages after genotyping using 2 mm tail samples taken at 10 days of age. Animals were identified by digital tattoos at 3 weeks of age.
# A 13 cm long, 2 mm diameter metal bar was placed horizontally between 2 rods at a 30 cm height. […] After gently releasing the tail, the time taken by mice to climb on the bar (grabbing it with their four paws) was monitored.
# (§2) To search for possible adverse effects induced by LPS2336 in vivo, we submitted CD1 mice to different confounding tests aiming at characterizing motor coordination, balance, muscle strength and spontaneous locomotor activity. […] Finally, we monitored the body temperature of mice for 45 min after intraperitoneal injection of LPS2336 at 40 mg/kg and could observe hypothermia in both WT and TREK-1 KO (−2.4 and −2.6 °C, respectively) following LPS2336 treatment (Figure 7F,G).
# CD1 mice [5] = test: Open field test in CD1 mice; assay type: in vivo, mouse; settings: i.p., 15 min before open field test
# Method: (§3) Mice were placed in the center of a 50 × 50 cm arena with 45 cm high walls. Animals were filmed for 10 min and the distance traveled was measured using video-tracking software (Viewpoint Videotrack 5.13.0.10).
# as §2, with “activity. […] To assess the contribution of TREK-1 to this adverse effect, we submitted TREK-1 knock-out mice (which are of the C57Bl6/J background) to the same test, 15 min following the injection of 50 mg/kg LPS2336. […] We finally submitted the mice to a third test consisting in observing their spontaneous locomotion in an open arena (open field test).” for “activity.”
# [6] = tested on: WT and TREK-1 KO littermates of C57Bl6/J background; test: Open field test in WT and TREK-1 KO littermates; assay type: in vivo, mouse; settings: i.p. 50 mg/kg
# Source text: as §1, §3, §2
# [7] = tested on: WT and TREK-1 KO littermates of C57Bl6/J background; test: Body temperature monitoring (rectal probe); assay type: in vivo, mouse; settings: i.p. 40 mg/kg, 15 min after injection minus before
# Source text: as §1
# Body temperature was measured using a rectal probe in awake animals before and 15, 30 and 45 min after injection of LPS2336.
# as §2, with “activity. […] To assess the contribution of TREK-1 to this adverse effect, we submitted TREK-1 knock-out mice (which are of the C57Bl6/J background) to the same test, 15 min following the injection of 50 mg/kg LPS2336.” for “activity.”
# hTREK-1 [8] = biological target: T1, hTREK-1; test: cell-based
# naive HEK293 cells = test: Thallium flux assay on naive (untransfected) HEK293 cells; settings: 10 µM
# Method: Cells were plated in 384-well plates with black walls and clear bottom coated with poly-D-lysine (Greiner Bio-One, Kremsmünster, Austria, #781946) at a density of 25 000 cells/well from a 1 250 000 cells/mL solution. Cell counting was performed with an automatic cell counter (Countness II FL, ThermoFisher, Waltham, MA, USA) with addition of trypan blue 0.2% to exclude dead cells. 24 h after plating, cells were incubated with FluxOR II green probe (ThermoFisher) for 1 h in the dark, accordingly to the supplier’s protocol (‘no wash’ procedure) with addition of 77 mg/mL probenecide. […] Fluorescence was measured every 3 s during 1 min (excitation 485 nm, emission 515 nm), and 0.5 mM thallium was added to the wells after a 20 s baseline. […] Fluorescence is normalized using the formula (F − F0)/F0 where F0 is the average fluorescence during the first 18 s of the recording. ΔFmax/F0 is calculated between 18 and 33 s (−2 to 13 s relative to thallium addition). For dose–response curves, ΔFmax/F0 are expressed as %vehicle (100% corresponding to the average ΔFmax/F0 measured in vehicle-treated wells). For high throughput screening, Z scores were calculated as(1) Z=Xsample−X¯neg/σneg where X represents ΔFmax/F0 and σ the ΔFmax/F0 standard deviation. ‘neg’ represents negative controls (vehicle-treated wells). […]
# [9] = 50 µM, HEK-hTREK-1 cells, vs vehicle
compound,measurement,setting,value
c1ccc(CC2CCN(Cc3ccccc3)CC2)cc1 [2f],TREK-1 activation by analogs,hTREK-1 [1],profound decrease in TREK-1 activation
O=C(O)CN1CCC(Cc2ccccc2)CC1 [2i],TREK-1 activation by analogs,hTREK-1 [1],severely impacted TREK-1 activation ability
N#CCN1CCCCC1 [2d],TREK-1 activation by analogs,hTREK-1 [1],loss of TREK-1 activation
Nc1ccc(Oc2ccc(C(c3ccc(Oc4ccc(N)cc4)cc3)(C(F)(F)F)C(F)(F)F)cc2)cc1 [GI-530159],increase of mean current density recorded at 0 mV,hTREK-1 [2]; [9],9.73 fold
"CN1CC[C@]23c4c5ccc(O)c4O[C@H]2[C@@H](O)C=C[C@H]3[C@H]1C5 [morphine, reference compound]",analgesia after intracerebroventricular administration,"CD1 mice [3]; intracerebroventricular, 1 µg (3.5 nmol)",analgesic
same,analgesia after intrathecal administration,"CD1 mice [3]; intrathecal, 3 µg (10.5 nmol)",long-lasting analgesia
N#CCN1CCC(Cc2ccccc2)CC1 [LPS2336],dose able to reverse the pain phenotype,"CD1 mice [3]; intracerebroventricular, effect similar to 1 µg morphine",100 µg
same,dose at which the analgesic effect reaches a plateau,CD1 mice [3]; intraperitoneal,20 mg/kg
same,time of peak analgesia after injection,CD1 mice [3]; intraperitoneal,15 min
same,dose from which pain thresholds are increased,"CD1 mice [3]; intraperitoneal, carrageenan-injected CD1 mice",≥ 20 mg/kg
same,effect on pain thresholds at the highest intrathecal dose,"CD1 mice [3]; intrathecal, 300 µg (1400 nmol)","slight, non-significant effect"
same,pain relief after intrathecal administration,"CD1 mice [3]; intrathecal, doses up to 300 µg",not effective
same,"horizontal bar test, WT vs TREK-1 KO",[4],no difference between WT and TREK-1 KO mice
same,time to climb on horizontal bar in WT littermates,[4]; C57Bl6/J WT,same increase in time to climb
same,dose from which spontaneous locomotion is decreased,CD1 mice [5],≥ 30 mg/kg
same,"open field test, WT vs TREK-1 KO",[6],no difference between WT and TREK-1 KO mice
same,spontaneous locomotion in C57Bl6/J mice,[6],same adverse effect as CD1 mice
same,"change in body temperature (hypothermia), WT mice",[7]; C57Bl6/J WT,−2.4 °C
same,"change in body temperature (hypothermia), TREK-1 KO mice",[7]; TREK-1 KO,−2.6 °C
same,average Z score in high throughput screening,hTREK-1 [1],3.50 ± 0.24
same,times over the positivity threshold,hTREK-1 [1],3/3
same,EC50,hTREK-1 [8],11.8 µM
same,increase of mean current density recorded at 0 mV,hTREK-1 [2],10.77 fold
N#CCCN1CCC(Cc2ccccc2)CC1 [2a],TREK-1 activation by analogs,hTREK-1 [1],profound decrease in TREK-1 activation
CCCCN1CCC(Cc2ccccc2)CC1 [2g],TREK-1 activation by analogs,hTREK-1 [1],profound decrease in TREK-1 activation
"CNCCC(Oc1ccc(C(F)(F)F)cc1)c1ccccc1 (centres unmarked) [fluoxetine, reference compound]",TREK-1 activation (ΔFmax/F0),hTREK-1 [1],54 % of vehicle
CCC#CCN1CCC(Cc2ccccc2)CC1 [2c],TREK-1 activation by analogs,hTREK-1 [1],profound decrease in TREK-1 activation
CC1CCN(CC#N)CC1 [2b],TREK-1 activation by analogs,hTREK-1 [1],loss of TREK-1 activation
"CS(=O)(=O)Nc1ccc(C(=O)NCc2ccc(Cl)cc2Cl)cc1 [ML335, reference compound]",increase in ΔFmax/F0,hTREK-1 [1],2.60 fold
same,effect of salification on TREK-1 activation,hTREK-1 [1]; 100 µM,increased TREK-1 activation
same,EC50,"hTREK-1 [1]; read-out: EC50 (TREK-1 activation, thallium assay)",6.7 µM
same,increase of mean current density recorded at 0 mV,hTREK-1 [2]; [9],13.35 fold
NCCN1CCC(Cc2ccccc2)CC1 [2j],TREK-1 activation by analogs,hTREK-1 [1],severely impacted TREK-1 activation ability
N#CCCCN1CCC(Cc2ccccc2)CC1 [2e],TREK-1 activation by analogs,hTREK-1 [1],profound decrease in TREK-1 activation
NC(=O)CN1CCC(Cc2ccccc2)CC1 [2k],TREK-1 activation by analogs,hTREK-1 [1],severely impacted TREK-1 activation ability
O=C(NCCCCN1CCN(Cc2ccccc2)CC1)c1ccc2ccccc2c1 [LPS6257],change in ΔFmax/F0 compared to the vehicle condition,hTREK-1 [1],−70%
"c1ccc(-c2nn[nH]n2)c(Nc2cccc3c2CCCC3)c1 [BL-1249, reference compound]",concentrations at which active on TREK-1,hTREK-1 [1],active at sub-micromolar concentrations
same,toxicity to HEK-hTREK-1 cells,hTREK-1 [1]; 100 µM,visible cell death
same,effect on fluorescence in naive cells,naive HEK293 cells,no effect
"Cc1cc(Cl)ccc1OCCNC(=O)c1cccs1 [ML402, reference compound]",effect of salification on TREK-1 activation,hTREK-1 [1]; 100 µM,increased TREK-1 activation
CCOC(=O)CN1CCC(Cc2ccccc2)CC1 [2h],TREK-1 activation by analogs,hTREK-1 [1],severely impacted TREK-1 activation ability
